Data published in article PMC11758220, “Identification of a Privileged Scaffold for Inhibition of Sterol Transport Proteins through the Synthesis and Ring Distortion of Diverse, Pseudo-Natural Products” (ACS Central Science, 2025).

Assays:
ORP1 = target: T1, ORP1 (Homo sapiens, UniProt Q9BXW6); assay: Fluorescence polarisation (FP) competition with NBD-cholesterol, ORP1; assay type: binding; settings: for IC50: mean of three experiments run in technical duplicates; for inhibition at 10 µM / ORP1 (FP) inhibition: single dose, Dose = 10 µM
T1 construct: ORP1(534-950); host or cells: E. coli BL21(DE3)
T1 sequence (Q9BXW6 534-950): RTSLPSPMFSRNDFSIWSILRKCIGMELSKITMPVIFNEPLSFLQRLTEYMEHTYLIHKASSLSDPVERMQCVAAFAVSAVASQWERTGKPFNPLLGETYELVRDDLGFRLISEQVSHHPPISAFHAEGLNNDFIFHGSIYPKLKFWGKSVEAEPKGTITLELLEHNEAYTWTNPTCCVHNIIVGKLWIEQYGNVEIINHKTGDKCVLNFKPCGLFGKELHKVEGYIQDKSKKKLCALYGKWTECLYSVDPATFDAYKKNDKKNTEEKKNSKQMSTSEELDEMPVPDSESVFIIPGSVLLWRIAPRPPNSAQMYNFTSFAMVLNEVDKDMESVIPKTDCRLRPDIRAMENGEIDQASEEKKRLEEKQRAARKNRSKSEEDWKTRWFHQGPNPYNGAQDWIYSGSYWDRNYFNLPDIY
Excerpt: (§1) Protein expression constructs
(§2) Human ASTER domains of Aster-A(359-547), -B(364-552) and -C(318-504) were subcloned into a pGEX-6p-2rbs vector, thus introducing the cloning artifact ‘GPLGS’.3 The pGEX-6P-1-GST-OSBP(377- […]
(§3) a gift from James H. Hurley (University of California).4 The pHIS_2His6_Thrombin_STARD4(2-205;C75S) plasmid was a gift from Young Jun Im (Chonnam National University).5 STARD5A was a gift from Nicola Burgess-Brown (Addgene plasmid #42392; http://n2t.net/addgene:42392; […]
(§4) Protein expression and purification […]
(§5) vectors including an N-terminal PreScission-cleavable glutathione S-transferase (GST)-tag were expressed in Escherichia coli (E. coli) OverExpress C41 in Terrific Broth (TB) medium for 16 h at 18 °C after the induction with 0.1 mM isopropyl β-D-1-thiogalactopyranoside (IPTG). Cells were harvested at 3500 × g for 15 minutes and lysed by sonication in buffer containing 50 mM HEPES pH 7.5, 300 mM NaCl, 10 %v/v glycerol, 5 mM dithiothreitol (DTT), 0.1 %v/v Triton X-100 and protease inhibitor mix HP plus (Serva). The lysate was purified by affinity chromatography on a GSTrap FF column (Cytiva) using an ÄKTA Start (Cytiva) in buffer containing 50 mM HEPES pH 7.5, 300 mM NaCl, 10 %v/v glycerol, 5 mM DTT and 0.01 %v/v Triton X-100. The GST-tag was cleaved overnight on the column at 4 °C. The Aster sterol binding domains were further purified by size-exclusion chromatography (SEC) on a HiLoad 16/600 Superdex 75 pg (Cytiva) in buffer containing 20 mM HEPES pH 7.5, 300 mM NaCl, 10 %v/v […]
(§6) STARD5(6-213) harboring an N-terminal His6-Tag were expressed in E. coli BL21(DE3) in Luria-Bertani Broth (LB) medium for approximately 16 h at 18 °C after induction with 0.15 mM IPTG. Cells were harvested at 3500 × g for 15 minutes and lysed by sonication in buffer containing 50 mM HEPES pH 7.5, 150 mM NaCl, 5 %v/v glycerol, 5 mM DTT, 0.1 %v/v Triton X -100 and ethylenediaminetetraacetic acid (EDTA)-free protease inhibitor cocktail (Sigma-Aldrich). The cleared lysate was purified by affinity chromatography on a Ni-NTA Superflow Cartridge (Qiagen) using an ÄKTA Start (Cytiva) in buffer containing 50 mM HEPES pH 7.5, 150 mM NaCl, 5 %v/v glycerol, 5 mM DTT. START domains were eluted by using elution buffer containing 50 mM HEPES pH 7.5, 150 mM NaCl, 5 %v/v glycerol, 5 mM DTT and 500 mM imidazole. Proteins were further purified by SEC on a HiLoad 16/600 Superdex 75 pg (Cytiva) in buffer containing 20 mM HEPES pH 7.5, 150 mM NaCl, 5 %v/v glycerol and 2 mM DTT.
(§7) The ORP domain of human OSBP(377-807) in the pGEX-6p-1 vector with an N-terminal PreScission-cleavable GST-tag was expressed in E. coli OverExpress C41 in LB medium for 16 h at 18 °C after induction with 0.1 mM IPTG. Cells were harvested at 3500 × g for 15 minutes and lysed by sonication in buffer containing 20 mM HEPES pH 7.5, 300 mM NaCl, 10 %v/v glycerol, 5 mM DTT, 0.1 %v/v Triton X-100 and EDTA-free protease inhibitor cocktail (Sigma-Aldrich). The cleared lysate was purified by affinity chromatography on a GSTrap HF column (Cytiva) using an ÄKTA Start (Cytiva) in buffer containing 20 mM HEPES pH 7.5, 300 mM NaCl, 10 %v/v glycerol, 5 mM DTT. OSBP(377 -807) was eluted by using elution buffer containing 20 mM HEPES pH 7.5, 300 mM NaCl, 10 %v/v glycerol, 5 mM DTT and 10 mM reduced glutathione. Proteins were further purified by SEC on a HiLoad 16/600 Superdex 75 pg (Cytiva) using an ÄKTA Explorer (Cytiva) in buffer containing 20 mM HEPES pH 7.5, 150 mM NaCl, 10 %v/v glycerol and 2 mM DTT.
(§8) The ORP domains of human ORP1(534-950) in pET24b(+) and ORP2(49-480) in the pET24b(+) vector including an N-terminal His6-Tag were expressed in E. coli BL21(DE3) in TB medium for approximately 16 h at 18 °C after induction with 0.1 mM IPTG. Cells were collected at 3500 × g for 15 minutes and lysed by sonification in buffer containing 10 mM Tris-HCl pH 8, 300 mM NaCl, 5 % glycerol, 2 mM DTT, 0.1 % Triton X-100 and EDTA-free protease inhibitor cocktail (Sigma-Aldrich). The cleared […]

STARD5 = target: T2, STARD5 (Homo sapiens, UniProt Q9NSY2); assay: Differential scanning fluorimetry (DSF), STARD5; assay type: binding; settings: for ΔTm at 10 µM / STARD5 (DSF) ΔTm: single dose, Dose = 10 µM; for Kd: apparent Kd, mean of three experiments run in technical duplicates, read-out: STARD5 Kd,app (DSF); for STARD5 (DSF) ΔTmmax: maximal thermal shift
T2 construct: STARD5(6-213); host or cells: E. coli BL21(DE3)
T2 sequence (Q9NSY2 6-213): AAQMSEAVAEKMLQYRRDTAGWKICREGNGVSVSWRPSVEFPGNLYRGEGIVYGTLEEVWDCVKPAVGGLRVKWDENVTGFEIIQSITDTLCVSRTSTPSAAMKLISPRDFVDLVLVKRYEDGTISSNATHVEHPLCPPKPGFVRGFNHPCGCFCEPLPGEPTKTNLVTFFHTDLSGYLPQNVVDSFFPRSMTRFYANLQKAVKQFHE
Excerpt: as §1, §2, §3, §4, §5, §6, §7, §8

Structure (SMILES): C[C@]12CC[C@@H]3C[C@H]1CC[C@@]21C(=Nc2ccc(Br)cc21)O3 (racemic) [Compound 15b]
- IC50 (ORP1): 20.9 µM
- inhibition at 10 µM (ORP1): 60%
- ΔTm at 10 µM (STARD5): 0.5 °C

Structure (SMILES): CC12CCC3CC1CCC21C(=Nc2ccc(N4CCOCC4)cc21)O3 (racemic) [Compound 19a]
- IC50 (ORP1): > 80 µM
- inhibition at 10 µM (ORP1): 0%
- Kd (STARD5): > 30 µM
- STARD5 (DSF) ΔTmmax (STARD5): 3.7 °C
- ΔTm at 10 µM (STARD5): 1.8 °C

Structure (SMILES): CC12CCC3CC1CCC21C(=Nc2ccc(Br)cc21)O3 (single isomer, unassigned; (+)) [(+)-15b]
- IC50 (ORP1): > 80 µM
- inhibition at 10 µM (ORP1): 0%
- Kd (STARD5): > 100 µM
- STARD5 (DSF) ΔTmmax (STARD5): 1.1 °C
- ΔTm at 10 µM (STARD5): -0.0628 °C

Structure (SMILES): CC12CCC3CC1CCC21C(=Nc2ccc(N4CCOCC4)cc21)O3 (single isomer, unassigned; (+)) [(+)-19a]
- IC50 (ORP1): > 80 µM
- ORP1 (FP) inhibition (ORP1): -3.3%
- Kd (STARD5): > 100 µM
- STARD5 (DSF) ΔTmmax (STARD5): 1.7 °C
- STARD5 (DSF) ΔTm (STARD5): 0.32 °C

Structure (SMILES): CC12CCC3CC1CCC21C(=Nc2ccc(N4CCOCC4)cc21)O3 (single isomer, unassigned; (-)) [(−)-19a]
- IC50 (ORP1): > 50 µM
- ORP1 (FP) inhibition (ORP1): 15.0%
- Kd (STARD5): > 30 µM
- ΔTm at 100 µM (STARD5; at 100 μM, read-out: STARD5 ΔTm^max): 4.7 °C
- STARD5 (DSF) ΔTmmax (STARD5): 5.2 °C
- STARD5 (DSF) ΔTm (STARD5): 3.3 °C

Structure (SMILES): C[C@@]12CC[C@H]3C[C@@H]1CC[C@]21C(=Nc2ccc(Br)cc21)O3 [(−)-15b]
- IC50 (ORP1): 15.3 µM
- inhibition at 10 µM (ORP1): 68.3%
- Kd (STARD5): > 100 µM
- STARD5 (DSF) ΔTmmax (STARD5): 1.3 °C
- ΔTm at 10 µM (STARD5): 0.4 °C

Structure (SMILES): CC(C)Oc1ccc(C(=O)Nc2nc3c(s2)CN(C(=O)OC(C)(C)C)CC3)cc1 [Autogramin-2, reference compound]
- IC50 (ORP1): 4.26 µM
- ORP1 (FP) inhibition (ORP1): 57.5%
- Kd (STARD5): > 30 µM
- STARD5 (DSF) ΔTm (STARD5): 0.211 °C

Structure (SMILES): Cc1c2c(nc3ccccc13)[C@@]1(C)CC[C@@H](O)C[C@H]1CC2 [Compound 2a]
- inhibition at 10 µM (ORP1): 53.3%
- ΔTm at 10 µM (STARD5): 0.4 °C

Structure (SMILES): C[C@]12CC[C@@H](O)C[C@H]1CCc1c2nc2ccccc2c1-c1ccccc1 [Compound 2b]
- ORP1 (FP) inhibition (ORP1): 11.7%
- STARD5 (DSF) ΔTm (STARD5): 0.0879 °C

Structure (SMILES): Cc1c2c(nc3cc(Br)ccc13)[C@@]1(C)CC[C@@H](O)C[C@H]1CC2 [Compound 2c]
- ORP1 (FP) inhibition (ORP1): 81.7%
- STARD5 (DSF) ΔTm (STARD5): 0.543 °C

Structure (SMILES): C[C@]12CC[C@@H](O)C[C@H]1CCc1c2nc2ccccc2c1-c1ccc(F)cc1 [Compound 2d]
- inhibition at 10 µM (ORP1): 5%
- ΔTm at 10 µM (STARD5): 0.0936 °C

Structure (SMILES): C[C@]12CC[C@@H](O)C[C@H]1CCc1c2nc2ccc(Cl)cc2c1-c1ccccc1 [Compound 2e]
- ORP1 (FP) inhibition (ORP1): 2.5%
- STARD5 (DSF) ΔTm (STARD5): 0.221 °C

Structure (SMILES): C[C@]12CC[C@@H](O)C[C@H]1CCc1c2[nH]c2ncccc12 [Compound 3]
- inhibition at 10 µM (ORP1): -5.8%
- ΔTm at 10 µM (STARD5): 0.149 °C

Structure (SMILES): C[C@]12CC[C@@H](O)C[C@H]1CCC[C@]21Nc2ccccc2-n2cccc21 [Compound 4]
- ORP1 (FP) inhibition (ORP1): 30.0%
- inhibition at 10 µM (ORP1): 5.8%
- STARD5 (DSF) ΔTm (STARD5): 0.276 °C
- ΔTm at 10 µM (STARD5): 0.138 °C

Structure (SMILES): C[C@]12CC[C@@H](O)C[C@H]1CCC[C@]21NC(=O)c2ccccc2N1 [Compound 5a]
- ORP1 (FP) inhibition (ORP1): 0.0%
- inhibition at 10 µM (ORP1): -2.5%
- STARD5 (DSF) ΔTm (STARD5): 0.0773 °C
- ΔTm at 10 µM (STARD5): 0.0253 °C

Structure (SMILES): C[C@]12CC[C@@H](O)C[C@H]1CCC[C@]21NC(=O)c2ccc(F)cc2N1 [Compound 5b]
- ORP1 (FP) inhibition (ORP1): -7.5%
- STARD5 (DSF) ΔTm (STARD5): 0.158 °C
- ΔTm at 10 µM (STARD5): -0.128 °C

Structure (SMILES): COc1ccc2c(c1)C(=O)N[C@]1(CCC[C@@H]3C[C@H](O)CC[C@@]31C)N2 [Compound 5c]
- ORP1 (FP) inhibition (ORP1): -5.0%
- inhibition at 10 µM (ORP1): 3.3%
- STARD5 (DSF) ΔTm (STARD5): 0.0259 °C
- ΔTm at 10 µM (STARD5): 0.117 °C

Structure (SMILES): C[C@]12CC[C@@H](O)C[C@H]1CCc1nc3ccccc3nc12 [Compound 7a]
- inhibition at 10 µM (ORP1): 16.7%
- ΔTm at 10 µM (STARD5): 0.5 °C

Structure (SMILES): Cc1cc2nc3c(nc2cc1C)[C@@]1(C)CC[C@@H](O)C[C@H]1CC3 [Compound 7b]
- inhibition at 10 µM (ORP1): 0%
- ΔTm at 10 µM (STARD5): 0.328 °C

Structure (SMILES): C[C@]12CC[C@@H](O)C[C@H]1CCc1nc3cc(F)c(F)cc3nc12 [Compound 7c]
- ORP1 (FP) inhibition (ORP1): -5.0%
- STARD5 (DSF) ΔTm (STARD5): 0.3 °C

Structure (SMILES): C[C@]12CC[C@@H](O)C[C@H]1CCc1nc3cc(Cl)c(Cl)cc3nc12 [Compound 7d]
- ORP1 (FP) inhibition (ORP1): 1.7%
- STARD5 (DSF) ΔTm (STARD5): -0.24 °C

Structure (SMILES): C[C@]12CC[C@@H](O)C[C@H]1CCc1nc3cc(Br)c(Br)cc3nc12 [Compound 7e]
- ORP1 (FP) inhibition (ORP1): 5.0%
- STARD5 (DSF) ΔTm (STARD5): 0.245 °C

Structure (SMILES): C[C@]12CC[C@@H](O)C[C@H]1CCc1sc(N)nc12 [Compound 8a]
- inhibition at 10 µM (ORP1): -9.2%
- ΔTm at 10 µM (STARD5): 0.0867 °C
